In US10328092B2, “Methods and compositions for treatment of drug addiction” (The Royal Institution for the Advancement of Learning / …, priority 2015, dated 2019):

Tests used:
adult microglial cells = test: TNFα mRNA in cultured adult mouse microglia; assay type: cell-based; conditions: cocaine 1 μm, 3 hours
Experimental: (SEQ ID NO: 1) [200 nM]; mouse TNFα reverse, […] (SEQ ID NO: 2) [200 nM]; mouse GAPDH forward, […] (SEQ ID NO: 3) [300 nM]; mouse GAPDH reverse, […] (SEQ ID NO: 4) [300 nM]; rat TNFα forward, […] (SEQ ID NO: 1) [600 nM]; rat TNFα reverse, […] (SEQ ID NO: 5) [600 nM]; rat cyclophilin forward, […] (SEQ ID NO: 6) [500 nM]; rat cyclophilin reverse, […] (SEQ ID NO: 7) [500 nM]. After 40 cycles, the Ct values were determined.
Adult male C57BL/6 mice (8-12 weeks) underwent cardiac perfusion with Hank's Balanced Salt Solution (HBSS) and whole brains were removed. Cortices and striata were dissected, cut in to small pieces and subjected to enzymatic digestion with the Neural Tissue Dissociation Kit (P) (Miltenyi Biotech, US cat no. 130-092-628), as per manufactures instructions. Tissue was homogenised and resuspended in 35% isotonic Percoll, overlayed with HBSS and spun at 400 g for 45 mins for the removal of myelin. Pure populations of microglial cells were obtained through magnetic bead cell sorting using CD11b microbeads (Miltenyi, cat no. 130-093-634). Aliquots from positive and negative bead selected fractions were removed for cell staining to assess cell purity. […] Cells were acquired using a BD FACS Canto II and analyzed using BD FACSDiva software. […]

TNFα mRNA = assay type: in vivo, mouse
Experimental: For tissue, total RNA from the ventral striatum was extracted and isolated by RNAqueous-4PCR total RNA isolation kit (Ambion, AM1914), according to manufacturer's instructions. For microglia and astrocyte cultures, total RNA was isolated by RNeasy kit (Qiagen, 74136). For all sample types, 0.5 μg of total RNA was used for cDNA synthesis with Quantitect Reverse Transcription Kit (Qiagen, 205313), and quantitative RT-PCR was performed with Fast SYBR-Green Master Mix (Applied Biosystems) detected by StepOne Plus RealTime PCR system (Applied Biosystems). The sequences of qPCR primers used for mRNA quantification in this study were obtained from Integrated DNA Technologies, and are as follows: mouse TNFα forward, […] (SEQ ID NO: 1) [200 nM]; mouse TNFα reverse, […] (SEQ ID NO: 2) [200 nM]; mouse GAPDH forward, […] (SEQ ID NO: 3) [300 nM]; mouse GAPDH reverse, […] (SEQ ID NO: 4) [300 nM]; rat TNFα forward, […] (SEQ ID NO: 1) [600 nM]; rat TNFα reverse, […] […] After 40 cycles, the Ct values were determined. To normalize the samples, ΔCt between TNFα and GADPH or cyclophilin Ct values was calculated. The x-fold difference in expression between the different treatments was then determined by subtraction of the ΔCt values and termed ΔΔCt. Finally, the total change was calculated as 2-ΔΔct and the relative amount compared with control samples was deducted.

[1] = Sickness behavior in vivo
mice = test: Cocaine-induced behavioural sensitization, locomotor response; assay type: in vivo, mouse
Experimental: A cocaine induced behavioral sensitization animal model of drug addiction was used. Sensitization refers to the augmentation of behavioral responses to drugs of abuse that occurs during their repeated administration and persists long after drug exposure is discontinued. In this paradigm mice are injected with 15 mg/kg cocaine and put in an open field box and measure the cocaine stimulatory effects on locomotor for 15 min. After the first run mice are injected with 10 ug of MPL and returned to their home cage.
The response of mice to repeated doses of cocaine was compared. After habituating animals to handling, the animals receive an IP injection and have their locomotor activity monitored in open-field chambers using Ethovision software for 15 min. After two days of saline injections, mice received five daily injections of cocaine (15 mg/kg) and assayed for locomotion. Following 7-10 days without injections (withdrawal), mice receive a challenge dose of cocaine (also 15 mg/kg) and locomotor activity again assessed (see Examples 1 and 2). A minimum of three separate cohorts have been run.
Locomotion was monitored in 30×30 cm plexiglass boxes by the EthoVision video-tracking system (Noldus) and performed near the end of the light phase of the light-dark cycle under dim red light. After habituating animals to handling, mice received IP injections of saline or cocaine and their activity was recorded for 15 min. Mice were tested during habituation to injection and the activity boxes (saline; days 1-2) and 5 repeated cocaine injections (15 mg/kg; days 3-7). Following 10 days without injections (withdrawal), mice receive a challenge dose of cocaine (15 mg/kg) and locomotor activity again assessed (day 17). Total distance traveled and stereotypy were evaluated from video by EthoVision. For stereotypy, the frequency of which the mouse stops moving (#pauses/min) was measured using a threshold start velocity of 2.00/second and a threshold stop velocity of 0 cm/s. The number of turns per minute (# turns/min) was measured by calculating the frequency for which the path of the mouse turns over a minimum distance of 3.00 cm. Velocity was assessed as the mean distance traveled (cm) over time (s).
Mice were treated for […] with saline (1,2), then 5 consecutive days with 15 mg/kg cocaine (3-7). Animals then underwent a 9 day withdrawal period from cocaine. On day 9, they received an injection of saline or 50 μg/kg of LPS. 24 hours later, the mice were retested for the locomotor response in terms of distance (cm) traveled in 15 minutes.

## COC(=O)[C@H]1[C@@H](OC(=O)c2ccccc2)C[C@@H]2CC[C@H]1N2C [cocaine]
Adult microglial cells
  TNFα mRNA, cultured adult microglia: 95 % of control
TNFα mRNA; 5 daily injections of cocaine, striatum CD11b+ fraction
  increase of TNFα mRNA in microglia cells: ~2.5 fold
TNFα mRNA; five daily cocaine treatments, other striatal cell types
  decrease in TNFα mRNA in non-microglial cells: 3.26±0.21 fold

## monophosphoryl lipid A [MPLA]
[1]
  sickness behavior: without inducing sickness behavior
mice; 7 daily saline injections, 9 days abstinence, MPLA 10 μg, cocaine 15 mg/kg next day
  initial response to cocaine challenge dose: did not alter
mice; TNFα−/− mice, MPLA 10 μg
  locomotor response to a challenge dose of cocaine: did not reduce
mice; TNFα−/− mice, MPLA 10 ug IP after first cocaine 15 mg/kg, re-tested one day later
  behavioral sensitization to cocaine: no effect
mice; WT mice, 10 days withdrawal, single MPLA 10 μg, tested 4 days later
  behavioral response to cocaine: did not reduce
mice; wildtype mice after withdrawal, MPLA 10 μg or 50 μg, tested 24 hours later, cocaine 15 mg/kg
  behavioral (locomotor) response to cocaine challenge: dose dependently reduced
mice; wildtype mice, MPLA 10 ug IP after first cocaine 15 mg/kg, re-tested 24 hours later
  behavioral sensitization to cocaine vs saline treated mice: reduced
